Like-named read-outs stand apart in the source and are kept apart here.
Key:
Assay type in all cases: cell-based, human
[1] = tested on: UACC-257 (melanoma); assay: NCI anticancer screen, SRB assay, 48 h; details: Homo sapiens
Summary of the method: (§1)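 Compounds were tested across fifty three human cancer cell lines from nine tumour types. Each line got a dose-response curve of at least five concentrations at 10-fold dilutions, with continuous drug exposure and sulforhodamine B protein staining to estimate viability or growth.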

[2] = tested on: ACHN (renal); assay: NCI anticancer screen, SRB assay, 48 h; details: Homo sapiens
Summary of the method: as §1

[3] = tested on: SK-MEL-5 (melanoma); assay: NCI anticancer screen, SRB assay, 48 h; details: Homo sapiens
Summary of the method: as §1

[4] = tested on: HOP-92 (non-small cell lung); assay: NCI anticancer screen, SRB assay, 48 h; details: Homo sapiens
Summary of the method: as §1

[5] = tested on: SF-539 (CNS); assay: NCI anticancer screen, SRB assay, 48 h; details: Homo sapiens
Summary of the method: as §1

[6] = tested on: SNB-19 (CNS); assay: NCI anticancer screen, SRB assay, 48 h; details: Homo sapiens
Summary of the method: as §1

[7] = tested on: SN12C (renal); assay: NCI anticancer screen, SRB assay, 48 h; details: Homo sapiens, SN12C
Summary of the method: as §1

[8] = tested on: MALME-3M (melanoma); assay: NCI anticancer screen, SRB assay, 48 h; details: Homo sapiens
Summary of the method: as §1

[9] = tested on: NCI-H226 (non-small cell lung); assay: NCI anticancer screen, SRB assay, 48 h; details: Homo sapiens
Summary of the method: as §1

[10] = tested on: KM12 (colon); assay: NCI anticancer screen, SRB assay, 48 h; details: Homo sapiens
Summary of the method: as §1

[11] = tested on: A549/ATCC (non-small cell lung); assay: NCI anticancer screen, SRB assay, 48 h; details: Homo sapiens
Summary of the method: as §1

[12] = tested on: NCI-H460 (non-small cell lung); assay: NCI anticancer screen, SRB assay, 48 h; details: Homo sapiens
Summary of the method: as §1

[13] = tested on: SK-MEL-28 (melanoma); assay: NCI anticancer screen, SRB assay, 48 h; details: Homo sapiens
Summary of the method: as §1

[14] = tested on: NCI-H23 (non-small cell lung); assay: NCI anticancer screen, SRB assay, 48 h; details: Homo sapiens
Summary of the method: as §1

[15] = tested on: A498 (renal); assay: NCI anticancer screen, SRB assay, 48 h; details: Homo sapiens
Summary of the method: as §1

[16] = tested on: SW-620 (colon); assay: NCI anticancer screen, SRB assay, 48 h; details: Homo sapiens
Summary of the method: as §1

[17] = tested on: OVCAR-8 (ovarian); assay: NCI anticancer screen, SRB assay, 48 h; details: Homo sapiens
Summary of the method: as §1

[18] = tested on: SK-OV-3 (ovarian); assay: NCI anticancer screen, SRB assay, 48 h; details: Homo sapiens
Summary of the method: as §1

[19] = tested on: CAKI-1 (renal); assay: NCI anticancer screen, SRB assay, 48 h; details: Homo sapiens
Summary of the method: as §1

[20] = tested on: HS 578T (breast); assay: NCI anticancer screen, SRB assay, 48 h; details: Homo sapiens
Summary of the method: as §1

[21] = tested on: K-562 (leukemia cell line); assay: NCI anticancer screen, SRB assay, 48 h; details: Homo sapiens
Summary of the method: as §1

[22] = tested on: 786-0 (renal); assay: NCI anticancer screen, SRB assay, 48 h; details: Homo sapiens
Summary of the method: as §1

[23] = tested on: TD-47D (breast); assay: NCI anticancer screen, SRB assay, 48 h; details: Homo sapiens
Summary of the method: as §1

[24] = tested on: EKVX (non-small cell lung); assay: NCI anticancer screen, SRB assay, 48 h; details: Homo sapiens
Summary of the method: as §1

[25] = tested on: Prostate cancer cell lines; assay: NCI anticancer screen, SRB assay, panel summary
Summary of the method: as §1

[26] = tested on: Leukemia cancer cell lines; assay: NCI anticancer screen, SRB assay, panel summary; details: Homo sapiens
Summary of the method: as §1

[27] = tested on: Non-small cell lung cancer cell lines; assay: NCI anticancer screen, SRB assay, panel summary; details: Homo sapiens
Summary of the method: as §1

[28] = tested on: Ovarian cancer cell lines; assay: NCI anticancer screen, SRB assay, panel summary; details: Homo sapiens
Summary of the method: as §1

[29] = tested on: Colon cancer cell lines; assay: NCI anticancer screen, SRB assay, panel summary; details: for GI50: Homo sapiens
Summary of the method: as §1

[30] = tested on: CNS cancer cell lines; assay: NCI anticancer screen, SRB assay, panel summary; details: for GI50: Homo sapiens
Summary of the method: as §1

[31] = tested on: Breast cancer cell lines; assay: NCI anticancer screen, SRB assay, panel summary; details: Homo sapiens
Summary of the method: as §1

[32] = tested on: Melanoma cancer cell lines; assay: NCI anticancer screen, SRB assay, panel summary; details: for GI50: Homo sapiens
Summary of the method: as §1

[33] = tested on: Renal cancer cell lines; assay: NCI anticancer screen, SRB assay, panel summary; details: Homo sapiens
Summary of the method: as §1

[34] = 48 h exposure, SRB, read-out: GI50
[35] = read-out: pGI50 (-log of molar concentration causing 50% inhibition of net cell growth) (converted)

## COc1ccc(-c2cn(-c3cccc(C(=O)/C=C/c4ccc(O)c(OC)c4)c3)c(=O)[nH]2)cc1 [3b, 1-3-[(E)-3-(4-hydroxy-3-methoxyphenyl)-2-propenoyl]phenyl-4-(4-methoxyphenyl)-2,3-dihydro-1H-2-imidazolone]
[1]; [34]
  GI50: 13.3 µM
[1]; [35]
  GI50: 13.2 µM
[2]; [34]
  GI50: 3.4 µM
[2]; [35]
  GI50: 3.39 µM
[3]; [34]
  GI50: 2.63 µM
[3]; [35]
  GI50: 2.63 µM
[4]; [34]
  GI50: 2.96 µM
[4]; [35]
  GI50: 2.95 µM
[5]; [34]
  GI50: 2.25 µM
[5]; [35]
  GI50: 2.24 µM
[6]; [34]
  GI50: 5.84 µM
[6]; [35]
  GI50: 5.89 µM
[7]; SN 12C, read-out: pGI50 (-log of molar concentration causing 50% inhibition of net cell growth) (converted)
  GI50: 4.07 µM
[7]; [34]
  GI50: 4.11 µM
[8]; Malme-3M, read-out: pGI50 (-log of molar concentration causing 50% inhibition of net cell growth) (converted)
  GI50: 4.47 µM
[8]; MALME-3M, 48 h exposure, SRB, read-out: GI50
  GI50: 4.42 µM
[9]; [34]
  GI50: 4.1 µM
[9]; [35]
  GI50: 4.07 µM
[10]; [34]
  GI50: 1.77 µM
[10]; [35]
  GI50: 1.78 µM
[11]; [34]
  GI50: 4.14 µM
[11]; [35]
  GI50: 4.17 µM
[12]; [34]
  GI50: 3.23 µM
[12]; [35]
  GI50: 3.24 µM
[13]; [34]
  GI50: 2.03 µM
[13]; [35]
  GI50: 2.04 µM
[14]; [34]
  GI50: 2.85 µM
[14]; [35]
  GI50: 2.82 µM
[15]; [34]
  GI50: 3.72 µM
[15]; [35]
  GI50: 3.72 µM
[16]; [34]
  GI50: 2.5 µM
[16]; [35]
  GI50: 2.51 µM
[17]; [34]
  GI50: 4.97 µM
[17]; [35]
  GI50: 5.01 µM
[18]; [34]
  GI50: 4.77 µM
[18]; [35]
  GI50: 4.79 µM
[19]; [34]
  GI50: 4.99 µM
[19]; [35]
  GI50: 5.01 µM
[20]; [34]
  GI50: 4.25 µM
[20]; [35]
  GI50: 4.27 µM
[21]; K562, 48 h exposure, SRB, read-out: GI50
  GI50: 2.35 µM
[21]; K562, read-out: pGI50 (-log of molar concentration causing 50% inhibition of net cell growth) (converted)
  GI50: 2.34 µM
[22]; [34]
  GI50: 4.53 µM
[22]; [35]
  GI50: 4.57 µM
[23]; [34]
  GI50: 3.6 µM
[23]; [35]
  GI50: 3.63 µM
[24]; [34]
  GI50: 13.4 µM
[24]; [35]
  GI50: 13.5 µM
[25]; Homo sapiens, log of concentration in mol/L causing 50% inhibition of net cell growth, read-out: mean graph midpoint (MG_MID) of Log10 GI50 (converted)
  GI50: 3.02 µM
[25]; Homo sapiens, log of concentration leading to 50% net cell death, read-out: mean graph midpoint (MG_MID) of Log10 LC50 (converted)
  LC50: ≥ 100 µM
[25]; log of concentration resulting in total inhibition of net cell growth
  mean graph midpoint (MG_MID) of Log10 TGI: 4.80
[26]; Leukemia panel, log of concentration in mol/L causing 50% inhibition of net cell growth, read-out: mean graph midpoint (MG_MID) of Log10 GI50 (converted)
  GI50: 1.78 µM
[26]; Leukemia panel, log of concentration leading to 50% net cell death, read-out: mean graph midpoint (MG_MID) of Log10 LC50 (converted)
  LC50: 38 µM
[26]; two leukemia cancer cell lines (RPMI-8226 and K-562), exposure at least 48 hrs, read-out: GI50, range over the panel
  GI50: 1.35 to 2.35 µM
[27]; Non-small cell lung panel, log of concentration in mol/L causing 50% inhibition of net cell growth, read-out: mean graph midpoint (MG_MID) of Log10 GI50 (converted)
  GI50: 4.68 µM
[27]; Non-small cell lung panel, log of concentration leading to 50% net cell death, read-out: mean graph midpoint (MG_MID) of Log10 LC50 (converted)
  LC50: ≥ 100 µM
[27]; nine non-small cell lung cancer cell lines, exposure at least 48 hrs, read-out: GI50, range over the panel
  GI50: 2.85 to 13.4 µM
[28]; Ovarian panel, log of concentration in mol/L causing 50% inhibition of net cell growth, read-out: mean graph midpoint (MG_MID) of Log10 GI50 (converted)
  GI50: 3.89 µM
[28]; Ovarian panel, log of concentration leading to 50% net cell death, read-out: mean graph midpoint (MG_MID) of Log10 LC50 (converted)
  LC50: 100 µM
[28]; six ovarian cancer cell lines, exposure at least 48 hrs, read-out: GI50, range over the panel
  GI50: 2.56 to 6.08 µM
[29]; Colon panel, log of concentration leading to 50% net cell death
  mean graph midpoint (MG_MID) of Log10 LC50: 4.33
[29]; Colon panel, log of concentration in mol/L causing 50% inhibition of net cell growth, read-out: mean graph midpoint (MG_MID) of Log10 GI50 (converted)
  GI50: 2.88 µM
[29]; seven colon cancer cell lines, exposure at least 48 hrs, read-out: GI50, range over the panel
  GI50: 1.77 to 6.61 µM
[30]; CNS panel, log of concentration leading to 50% net cell death
  mean graph midpoint (MG_MID) of Log10 LC50: 4.06
[30]; CNS panel, log of concentration in mol/L causing 50% inhibition of net cell growth, read-out: mean graph midpoint (MG_MID) of Log10 GI50 (converted)
  GI50: 4.68 µM
[30]; six CNS cancer cell lines, exposure at least 48 hrs, read-out: GI50, range over the panel
  GI50: 2.25 to 13.9 µM
[31]; Breast panel, log of concentration in mol/L causing 50% inhibition of net cell growth, read-out: mean graph midpoint (MG_MID) of Log10 GI50 (converted)
  GI50: 4.17 µM
[31]; Breast panel, log of concentration leading to 50% net cell death, read-out: mean graph midpoint (MG_MID) of Log10 LC50 (converted)
  LC50: 100 µM
[31]; five breast cancer cell lines, exposure at least 48 hrs, read-out: GI50, range over the panel
  GI50: 3.18 to 5.25 µM
[32]; Melanoma panel, log of concentration in mol/L causing 50% inhibition of net cell growth, read-out: mean graph midpoint (MG_MID) of Log10 GI50 (converted)
  GI50: 4.07 µM
[32]; nine melanoma cancer cell lines, exposure at least 48 hrs, read-out: GI50, range over the panel
  GI50: 2.03 to 13.3 µM
[32]; Melanoma panel, log of concentration leading to 50% net cell death
  mean graph midpoint (MG_MID) of Log10 LC50: 4.13
[33]; Renal panel, log of concentration in mol/L causing 50% inhibition of net cell growth, read-out: mean graph midpoint (MG_MID) of Log10 GI50 (converted)
  GI50: 4.68 µM
[33]; Renal panel, log of concentration leading to 50% net cell death, read-out: mean graph midpoint (MG_MID) of Log10 LC50 (converted)
  LC50: 95.5 µM
[33]; eight renal cancer cell lines, exposure at least 48 hrs, read-out: GI50, range over the panel
  GI50: 3.4 to 6.08 µM

Reference: patent US8889874B2, “Imidazolone-chalcone derivatives as potential anticancer agent and process for the preparation thereof” (Council of Scientific and Industrial Research, priority 2010, dated 2014)
